Test results taken from ChEMBL document CHEMBL3826959, “Modification of existing antibiotics in the form of precursor prodrugs that can be subsequently activated by nitroreductases of the target pathogen” (Bioorg Med Chem Lett, 2016).
Converted amounts (≈) assume the structure as drawn. Blank lines part the entries; values can stand above or below the compound they belong to. The source made the active and inactive calls. No cut-off for these calls is given here.

Assays:
[1] = tested on: Staphylococcus saprophyticus; assay: Antibacterial activity against Staphylococcus saprophyticus ATCC 15305 assessed as zone of inhibition at 51 ug/disc measured after 16 to 24 hrs by agar diffusion method; format: functional; details: read-out: DIZ
[2] = tested on: Staphylococcus saprophyticus; assay: Antibacterial activity against Staphylococcus saprophyticus ATCC 15305 measured after 18 hrs by agar dilution method; format: functional; details: ATCC 15305, 18 h
[3] = tested on: Staphylococcus saprophyticus; assay: Antibacterial activity against Staphylococcus saprophyticus ATCC 15305 measured after 18 hrs by broth dilution method; format: functional; details: ATCC 15305, 18 h
[4] = tested on: Staphylococcus saprophyticus; assay: Antibacterial activity against Staphylococcus saprophyticus ATCC 15305 assessed as bacterial survival measured after 18 hrs by broth dilution method; format: functional
[5] = Drug level assessed as Staphylococcus saprophyticus ATCC 15305 nitroreductase B mediated compound formation using 130 uM NO2-SMX measured after 200 mins in presence of NADPH-cofactor generating system by LC-MS/MS analysis; format: ADME; details: isolated protein
[6] = Stability of the compound; format: physicochemical
[7] = Prodrug activation assessed as Staphylococcus saprophyticus ATCC 15305 nitroreductase B mediated […] at 130 uM measured after 200 mins in presence of NADPH-cofactor generating system by LC-MS/MS analysis; details: isolated protein
[8] = Prodrug activation assessed as Staphylococcus saprophyticus ATCC 15305 nitroreductase B mediated N-OH-sulfamethoxazole formation at 130 uM measured after 200 mins in presence of NADPH-cofactor generating system by LC-MS/MS analysis; details: isolated protein
[9] = Prodrug activation assessed as Staphylococcus saprophyticus ATCC 15305 nitroreductase B mediated sulfamethoxazole formation at 130 uM measured after 200 mins in presence of NADPH-cofactor generating system by LC-MS/MS analysis; details: isolated protein
[10] = Prodrug activation assessed as Staphylococcus saprophyticus ATCC 15305 nitroreductase B mediated N-OH-sulfamethoxazole formation at 2 mM in presence of NADPH-cofactor generating system by ESI-MS analysis; details: isolated protein, 2000 µM
[11] = tested on: Staphylococcus saprophyticus; assay: Antibacterial activity against Staphylococcus saprophyticus ATCC 15305 assessed as zone of inhibition at 57 ug/disc measured after 16 to 24 hrs by agar diffusion method; format: functional
[12] = Prodrug activation assessed as Staphylococcus saprophyticus ATCC 15305 nitroreductase B mediated sulfamethoxazole formation at 2 mM in presence of NADPH-cofactor generating system by ESI-MS analysis; details: isolated protein, 2000 µM
[13] = Drug level assessed as Staphylococcus saprophyticus ATCC 15305 nitroreductase B mediated compound formation using at 2 mM NO2-SMX 2 mM in presence of NADPH-cofactor generating system by ESI-MS analysis; format: ADME; details: isolated protein, 2000 µM
[14] = tested on: Staphylococcus saprophyticus; assay: Activity at Staphylococcus saprophyticus ATCC 15305 nitroreductase B by UV-vis spectrophotometry based Michaelis-Menten plot analsysis
[15] = Prodrug activation assessed as Staphylococcus saprophyticus ATCC 15305 nitroreductase B mediated […] at 2 mM in presence of NADPH-cofactor generating system by ESI-MS analysis; details: isolated protein, 2000 µM
[16] = tested on: Staphylococcus saprophyticus; assay: Antibacterial activity against Staphylococcus saprophyticus ATCC 15305 assessed as zone of inhibition at 54 ug/disc measured after 16 to 24 hrs by agar diffusion method; format: functional; details: read-out: DIZ
[17] = tested on: Staphylococcus saprophyticus; assay: microbe, parasite or virus in culture; details: ATCC 15305, read-out: DIZ
Description: Antibacterial activity against Staphylococcus saprophyticus ATCC 15305 assessed as zone of inhibition at 300 ug/disc measured after 16 to 24 hrs by agar diffusion method

SMILES: Cc1cc(NS(=O)(=O)c2ccc(N)cc2)no1 [SULFAMETHOXAZOLE]
- zone of inhibition at 51 µg/disc [1]: 16 mm
- MIC [2]: 2050 µg/mL (≈ 8.09 mM)
- MIC [3]: 4100 µg/mL (≈ 16.2 mM)
- Activity [4]: 12%
- Drug metabolism [5]: metabolite_detected

SMILES: NC(=O)N/N=C/c1ccc([N+](=O)[O-])o1 [NITROFURAZONE]
- MIC [2]: 128 µg/mL (≈ 0.646 mM)
- MIC [3]: 32 µg/mL (≈ 0.162 mM)

SMILES: O=C1CN(/N=C/c2ccc([N+](=O)[O-])o2)C(=O)N1 [NITROFURANTOIN]
- MIC [2]: 8 µg/mL (≈ 0.0336 mM)
- MIC [3]: 8 µg/mL (≈ 0.0336 mM)
- zone of inhibition at 300 µg/disc [17]: 18 mm

Now from value to compound, other results behind:

- Stability [6]: Unstable
- Drug metabolism [5]: metabolite_detected
SMILES: Cc1cc(NS(=O)(=O)c2ccc(N=O)cc2)no1

- Drug metabolism [7]: metabolite_detected
- Drug metabolism [8]: metabolite_detected
- Drug metabolism [9]: metabolite_detected
- Drug metabolism [10]: metabolite_detected
- Drug metabolism [12]: metabolite_notdetected
- Drug metabolism [13]: metabolite_detected
- Km [14]: 92.6 µM
- kcat [14]: 2.95 s⁻¹
- MIC [2]: 2050 µg/mL (≈ 7.23 mM)
- MIC [3]: 2050 µg/mL (≈ 7.23 mM)
- Drug metabolism [15]: metabolite_detected
SMILES: Cc1cc(NS(=O)(=O)c2ccc([N+](=O)[O-])cc2)no1
- diameter of the inhibition zone (DIZ) [11]: inactive

- MIC [3]: 2050 µg/mL (≈ 7.61 mM)
- Drug metabolism [5]: metabolite_detected
SMILES: Cc1cc(NS(=O)(=O)c2ccc(NO)cc2)no1
- zone of inhibition at 54 µg/disc [16]: 10 mm
